Measurements taken from patent US10639287B2, “Compounds for the treatment of mitochondrial diseases” (UNIVERSITE PARIS-SUD, priority 2014, dated 2020).

Columns and labels:
[1] = system: complex I in neuronal cybrids derived from a MELAS patient (m.3243A>G tRNA^Leu mutation); assay: Ratio of complex I/citrate synthase activities in MELAS neuronal cybrids; type: cell-based, human; conditions: 1 μM or 300 nM, 48 hours
Protocol: The mutant MELAS neuronal transmitochondrial line, which is the result of the fusion of the immortalised neuoroblastoma parental line SHSY-5Y with fibroblasts carrying the mutation m.3243A>G, was created in the laboratory of Prof. Procaccio.
Neuronal cybrid lines carrying the MELAS mutation and the parental control line were grown in sterile culture flasks and incubated at 37° C. with 5% CO2 in a medium composed of DMEM with 1.5 g/L glucose, 2 mM L-glutamine and supplemented with 10% foetal bovine serum as well as uridine (5 μg/ml) and pyruvate (10 μg/mL). […]
(§1) The MELAS neuronal cybrid line carrying the mutation seemingly in the homoplasmic state (i.e. reaching almost 100% MELAS mutation) and the SHSY-5Y parental control line were used for measurements of enzyme activities. […] These cell pellets were then analysed by spectrophotometry with measurement of the different mitochondrial biochemical activities, particularly the activity of citrate synthase and the activity of complex I of the respiratory chain. […]
The enzymatic activities were measured according to the protocol described in Medjda et al, 2009 (Medja F, Allouche S, Frachon P, Jardel C, Malgat M, Mousson de Camaret B, Slama A, Lunardi J, Mazat J P, Lombès A. Development and implementation of standardized respiratory chain spectrophotometric assays for clinical diagnosis. Mitochondrion. 2009 September; 9(5):331-9).

[2] = system: neuronal cybrids derived from a MELAS patient (m.3243A>G tRNA^Leu mutation); assay: Lactate production of MELAS neuronal cybrids; type: cell-based, human; conditions: 1 μM or 300 nM, 48 hours
Protocol: The increase in the lactate production is the result of a toxicity of the drug used, but also of a mitochondrial dysfunction (energy deficiency) present in MELAS syndrome.
Neuronal cybrid lines carrying the MELAS mutation and the parental control line were grown in sterile culture flasks and incubated at 37° C. with 5% CO2 in a medium composed of DMEM with 1.5 g/L glucose, 2 mM L-glutamine and supplemented with 10% foetal bovine serum as well as uridine (5 μg/ml) and pyruvate (10 μg/mL). The cells were harvested by trypsinisation in exponential phase and were used for subsequent biochemical or molecular mitochondrial analyses.
as §1
The lactate concentration of the culture medium for neuronal cybrid and parental cells was determined by spectrophotometry using an enzymatic kit (Bohringer) on a Hitachi-Roche apparatus (Roche Diagnostics GmbH). […]

Q: What does the source list for `CCCCCCCN(CC)CCCC(O)c1ccc(NS(C)(=O)=O)cc1` (centres unmarked) [ibutilide]?
A: activity of complex I (ratio complex I/citrate synthase) [1]: increased; production of lactate [2]: decreased
